The subject of series [1] is high-fat diet (HFD)-fed mouse model. As to the kind of experiment: Histopathology (H&E and oil red O staining) of liver and adipose tissue in HFD-fed mice. The class given is in vivo, C57BL/6 mice. Here is the method: All animal experiments were conducted under the standard regulations of the Institutional Animal Care and Use Committee (IACUC) at Konkuk University (ref. no. KU22078-1). The animals were housed in a controlled environment with regulated temperature and humidity, maintained under a 12 h light–dark cycle. Obesity was induced in 5-week-old male C57BL/6 mice through dietary control for 69 days. A total of 25 mice were used and divided into five experimental groups: negative control (regular diet, RD), positive control (high-fat diet, HFD), RO (0.5 mg/kg), RLC (1 mg/kg), and SRLC NPs (1.1 mg/kg). The RO dose was set at half that of RLC due to its molecular weight being approximately twice that of RLC, ensuring equivalent molar exposure. Additionally, the SRLC NP dose was adjusted to 1.1 mg/kg as it comprised 1 mg of RLC and 0.1 mg of semaglutide, allowing for the accurate comparison of therapeutic effects. While the RD group received a normal diet, the other groups were fed a high-fat diet (HFD) consisting of 60 kcal% fat (D12492, Research Diets, New Brunswick, NJ, USA). The body weights of the mice were measured weekly. Starting from day 28 of the dietary intervention, each group received their respective substances via subcutaneous injection every three days. Five days before the end of the experiment, an oral glucose tolerance test (OGTT) was conducted to assess glucose sensitivity. After 19 h of fasting, all experimental groups were administered a glucose solution orally (2 g/kg). Blood glucose levels were then measured at time intervals of 0, 15, 30, 60, 90, 120, and 180 min (n = 3). Blood glucose levels were assessed using a glucometer (G CARE, GC Medical Science, Yongin, Republic of Korea). On the final day of the experiment, after 14 h of fasting, the mice were anesthetized via intraperitoneal administration of 2,2,2-tribromoethanol (TBE), and blood samples were collected. Hepatotoxicity and lipid profiling analyses were conducted using the collected blood samples, while liver tissues were subjected to hematoxylin and eosin (H&E) and oil red O (ORO) staining for further evaluation. All analyses were performed by KP&T Technology (Cheongju, Republic of Korea).
Representative images of mice from the HFD group and the SRLC NPs-treated group on the final day of the experiment are shown in Figure 9A. To evaluate the pathological changes at the tissue level and the therapeutic effects of SRLC NPs, hematoxylin and eosin (H&E) staining and oil red O (ORO) staining were performed (Figure 9B). These staining analyses were conducted to confirm the reduction in hepatic fat accumulation and assess adipose tissue remodeling following SRLC NPs treatment. […] The area of the adipocyte in sWAT (n = 4) was as follows: HFD, 78.86 ± 1.38%; RO, 77.51 ± 2.52%; RLC, 72.72 ± 2.75%; and SRLC NPs, 47.45 ± 1.03% (Figure 9E). The diameter of the adipocyte in eWAT (n = 7) was the following: HFD, 64.12 ± 12.51 µm; RO, 59.53 ± 6.42 µm; RLC, 57.01 ± 7.04 µm; and SRLC NPs, 33.79 ± 3.62 µm (Figure 9F). The area of the adipocyte in eWAT (n = 4) was as follows: HFD, 76.44 ± 1.91%; RO, 79.30 ± 1.91%; RLC, 79.223 ± 1.53%; and SRLC NPs, 63.28 ± 2.94% (Figure 9G).

Series [2] has the same test system. As to the kind of experiment: Anti-obesity effect (body weight) in high-fat diet (HFD)-fed mouse model. The class given is in vivo. Conditions: HFD-fed C57BL/6 mice, day 69, s.c. every three days from day 28; RO 0.5 mg/kg, SRLC NPs 1.1 mg/kg; mean ± S.D., n = 5. Here is the method:
(§1) All animal experiments were conducted under the standard regulations of the Institutional Animal Care and Use Committee (IACUC) at Konkuk University (ref. no. KU22078-1). The animals were housed in a controlled environment with regulated temperature and humidity, maintained under a 12 h light–dark cycle. Obesity was induced in 5-week-old male C57BL/6 mice through dietary control for 69 days. A total of 25 mice were used and divided into five experimental groups: negative control (regular diet, RD), positive control (high-fat diet, HFD), RO (0.5 mg/kg), RLC (1 mg/kg), and SRLC NPs (1.1 mg/kg). The RO dose was set at half that of RLC due to its molecular weight being approximately twice that of RLC, ensuring equivalent molar exposure. Additionally, the SRLC NP dose was adjusted to 1.1 mg/kg as it comprised 1 mg of RLC and 0.1 mg of semaglutide, allowing for the accurate comparison of therapeutic effects. While the RD group received a normal diet, the other groups were fed a high-fat diet (HFD) consisting of 60 kcal% fat (D12492, Research Diets, New Brunswick, NJ, USA). The body weights of the mice were measured weekly. Starting from day 28 of the dietary intervention, each group received their respective substances via subcutaneous injection every three days. […] Blood glucose levels were then measured at time intervals of 0, 15, 30, 60, 90, 120, and 180 min (n = 3).

Series [3] has the same test system. As to the kind of experiment: Oral glucose tolerance test (OGTT) in HFD-fed mice. The series is classed as in vivo, C57BL/6 mice. To be noted: day 64, 19 h fasting, oral glucose 2 g/kg, 0-180 min, glucometer, n = 3; RO 0.5 mg/kg, RLC 1 mg/kg, SRLC NPs 1.1 mg/kg s.c. Here is the method:
as §1

For series [4] the following is noted: conventional semaglutide formulations; ref [11],[12]; cited from earlier work. An excerpt: Obesity and non-alcoholic fatty liver disease (NAFLD) have emerged as critical health concerns in modern society, closely linked to diabetes, cardiovascular diseases, and metabolic syndrome. As one of the most rapidly increasing metabolic disorders worldwide, there is a continuous demand for the development of effective therapeutic agents and treatment strategies.

For the compound `CC(C)c1nc(N(C)S(C)(=O)=O)nc(-c2ccc(F)cc2)c1/C=C/[C@@H](O)C[C@@H](O)CC(=O)O` [RO, Rosuvastatin calcium], in series [1] (H&E and ORO staining, RO 0.5, RLC 1, SRLC NPs 1.1 mg/kg s.c.), the “lipid staining and fat droplet accumulation in liver tissue (in words)” value is “abnormal fat droplet accumulation”. Also, the “diameter of the adipocyte in sWAT” value in series [1] (H&E, HFD group 60.32 ± 6.95 µm, mean ± S.D., n = 7) stood at 51.20 ± 8.99 µm. In series [1] (H&E, HFD group 64.12 ± 12.51 µm, mean ± S.D., n = 7), the “diameter of the adipocyte in eWAT” value amounted to 59.53 ± 6.42 µm. In addition, the “area of the adipocyte in eWAT” value in series [1] (H&E, HFD group 76.44 ± 1.91%, mean ± S.D., n = 4) stood at 79.30 ± 1.91%. Moreover, the “area of the adipocyte in sWAT” value in series [1] (H&E, HFD group 78.86 ± 1.38%, mean ± S.D., n = 4) amounted to 77.51 ± 2.52%. Moreover, the “quantification of ORO staining” value in series [1] (liver tissue, HFD group = 100.00 ± 15.00%, RO 0.5, RLC 1, SRLC NPs 1.1 mg/kg s.c., mean ± S.D., n = 4) was determined as 70.50 ± 8.02%. Also, the “body weight at the end of the experiment” value in series [2] stood at 36.20 ± 2.34 g. In addition, the “blood glucose response in OGTT (in words)” value in series [3] is listed as “sharp increase in blood glucose levels immediately after administration, followed by a gradual decline”.
For `CC[C@H](C)[C@H](NC(=O)[C@H](Cc1ccccc1)NC(=O)[C@H](CCC(=O)O)NC(=O)[C@H](CCCCNC(=O)COCCOCCNC(=O)COCCOCCNC(=O)CC[C@H](NC(=O)CCCCCCCCCCCCCCCCC(=O)O)C(=O)O)NC(=O)[C@H](C)NC(=O)[C@H](C)NC(=O)[C@H](CCC(N)=O)NC(=O)CNC(=O)[C@H](CCC(=O)O)NC(=O)[C@H](CC(C)C)NC(=O)[C@H](Cc1ccc(O)cc1)NC(=O)[C@H](CO)NC(=O)[C@H](CO)NC(=O)[C@@H](NC(=O)[C@H](CC(=O)O)NC(=O)[C@H](CO)NC(=O)[C@@H](NC(=O)[C@H](Cc1ccccc1)NC(=O)[C@@H](NC(=O)CNC(=O)[C@H](CCC(=O)O)NC(=O)C(C)(C)NC(=O)[C@@H](N)Cc1cnc[nH]1)[C@@H](C)O)[C@@H](C)O)C(C)C)C(=O)N[C@@H](C)C(=O)N[C@@H](Cc1c[nH]c2ccccc12)C(=O)N[C@@H](CC(C)C)C(=O)N[C@H](C(=O)N[C@@H](CCCNC(=N)N)C(=O)NCC(=O)N[C@@H](CCCNC(=N)N)C(=O)NCC(=O)O)C(C)C` [semaglutide], the oral bioavailability in series [4] is listed as ~ 1%.
